Measurements reported in ChEMBL document CHEMBL1150602, “Novel diterpene lactones from Suregada multiflora” (2002).

Assays:
Saccharomyces cerevisiae [1] = assay: DNA damaging activity against DNA repair-proficient yeast RAD+ assessed as drug concentration required to produce 12 mm zone of inhibition; type: functional
Saccharomyces cerevisiae [2] = assay: DNA damaging activity against DNA repair-deficient yeast RAD52 mutant assessed as drug concentration required to produce 12 mm zone of inhibition; type: functional

Structure (SMILES)	IC12 (Saccharomyces cerevisiae [1]) [µg/mL]	IC12 (Saccharomyces cerevisiae [2]) [µg/mL]
COC1=C(N)C(=O)c2nc(-c3nc(C(=O)O)c(C)c(-c4ccc(OC)c(OC)c4O)c3N)ccc2C1=O [STREPTONIGRIN]	> 1	0.4
CC1=C2[C@@H](O)[C@]3(O)CC[C@@H]4[C@@]5(C)C[C@H]5CC[C@@]4(C)[C@@H]3C[C@H]2OC1=O [SUREGADOLIDE A]	70	35
